# Test results published in article PMC8161026, “Synthesis and Anticancer Activity Evaluation of 5-[2-Chloro-3-(4-nitrophenyl)-2-propenylidene]-4-thiazolidinones” (Molecules, 2021).
# Assays:
# AGS (gastric cancer) = test: MTT cell viability assay; type: cell-based; details: Homo sapiens, 24 h
# Experimental: (§1) In the second stage of the research, Ciminalum-thiazolidinone hybrids were investigated for antitumor activity on the lines of gastric cancer (AGS), human colon cancer (DLD-1), and breast cancers (MCF-7 and MDA-MB-231). The study was performed in the MTT assay according to the method described previously. The studied cancer line was sensitive to the action of the studied compounds that inhibited its growth in micromolar ranges of GI50. The hit compounds that inhibited the growth of all four cancer lines with the lowest GI50 values were [5-[2-chloro-3-(4-nitrophenyl)prop-2-enylidene]-rhodanines 2c, 2d, 2h, and 2i (Table 4).
# [1] = tested on: DLD-1 (human colon cancer); test: MTT cell viability assay; type: cell-based; details: DLD-1, MTT, 24 h
# Experimental: as §1
# MCF-7 (breast cancer) = test: MTT cell viability assay; type: cell-based; details: Homo sapiens, MCF7; MCF-7, MTT, 24 h
# Experimental: as §1
# [2] = tested on: MDA-MB-231 (breast cancer); test: MTT cell viability assay; type: cell-based; details: Homo sapiens; MDA-MB-231, MTT, 24 h
# Experimental: as §1
# SR = SR (Leukemia), 48 h, SRB
# HOP-62 [3] = details: HOP-62 (Non-Small Cell Lung Cancer), 48 h, SRB
# NCI-H460 = NCI-H460 (Non-Small Cell Lung Cancer), 48 h, SRB
# HCT-116 = HCT-116 (Colon Cancer), 48 h, SRB
# SNB-75 = SNB-75 (CNS Cancer), 48 h, SRB
# U251 = U251 (CNS Cancer), 48 h, SRB
# HL-60(TB) = test: cells; details: Homo sapiens, HL-60, 48 h
# SN12C = SN12C (Renal Cancer), 48 h, SRB
# RPMI-8226 = test: cells; details: Homo sapiens, RPMI-8226, 48 h
# A549/ATCC = test: cells; details: Homo sapiens, A549, 48 h
# HOP-62 [4] = test: cells; details: Homo sapiens, HOP-62, 48 h
# SW-620 = test: cells; details: Homo sapiens, SW-620, 48 h
# LOX IMVI = test: cells; details: Homo sapiens, 48 h
# SK-MEL-28 = test: cells; details: Homo sapiens, SK-MEL-28, 48 h
# T-47D = test: cells; details: Homo sapiens, T47D, 48 h
# SF-539 = test: NCI DTP 60 cell line screen, SRB
# SNB-19 = test: NCI DTP 60 cell line screen, SRB
# M14 = test: NCI DTP 60 cell line screen, SRB
# CAKI-1 = test: NCI DTP 60 cell line screen, SRB
# MCF-7 = test: NCI DTP 60 cell line screen, SRB
# NCI/ADR-Res = test: NCI DTP 60 cell line screen, SRB; details: 48 h
smiles,measurement,setting,value
"O=C(O)CCN1C(=O)/C(=C/C(Cl)=C/c2ccc([N+](=O)[O-])cc2)SC1=S [Compound 2h, 3-{5-[(Z,2Z)-2-Chloro-3-(4-nitrophenyl)-2-propenylidene]-4-oxo-2-thioxothiazolidin-3-yl}propanoic acid]",GI50,AGS (gastric cancer),2.69 µM
same,GI50,[1],3.67 µM
same,GI50,MCF-7 (breast cancer),3.62 µM
same,GI50,[2],1.63 µM
same,TGI,SR,1.41 µM
same,TGI,HOP-62 [3],19.9 µM
same,TGI,NCI-H460,3.32 µM
same,TGI,HCT-116,1.19 µM
same,TGI,SNB-75,46.0 µM
same,TGI,U251,2.00 µM
same,GI50,HL-60(TB),0.347 µM
same,CC50,HL-60(TB); read-out: LC50,> 100 µM
same,TGI,SN12C,2.99 µM
same,GI50,RPMI-8226,0.138 µM
same,CC50,RPMI-8226; read-out: LC50,> 100 µM
same,GI50,A549/ATCC,1.76 µM
same,CC50,A549/ATCC; read-out: LC50,> 100 µM
same,GI50,HOP-62 [4],6.54 µM
same,CC50,HOP-62 [4]; read-out: LC50,52.8 µM
same,GI50,SW-620,< 0.01 µM
same,CC50,SW-620; read-out: LC50,> 100 µM
same,GI50,LOX IMVI,0.161 µM
same,CC50,LOX IMVI; read-out: LC50,> 100 µM
same,GI50,SK-MEL-28,3.59 µM
same,CC50,SK-MEL-28; read-out: LC50,89.5 µM
same,GI50,T-47D,0.363 µM
same,CC50,T-47D; read-out: LC50,> 100 µM
same,GI50,"SF-539; Homo sapiens, SF-539, 48 h",< 0.01 µM
same,CC50,"SF-539; Homo sapiens, SF-539, 48 h, read-out: LC50",25.8 µM
same,TGI,"SF-539; SF-539 (CNS Cancer), 48 h, SRB",0.267 µM
same,GI50,"SNB-19; Homo sapiens, SNB-19, 48 h",0.658 µM
same,CC50,"SNB-19; Homo sapiens, SNB-19, 48 h, read-out: LC50",83.7 µM
same,TGI,"SNB-19; SNB-19 (CNS Cancer), 48 h, SRB",26.3 µM
same,GI50,"M14; Homo sapiens, M14, 48 h",1.66 µM
same,CC50,"M14; Homo sapiens, M14, 48 h, read-out: LC50",7.74 µM
same,TGI,"M14; M14 (Melanoma), 48 h, SRB",3.58 µM
same,TGI,"CAKI-1; CAKI-1 (Renal Cancer), 48 h, SRB",6.14 µM
same,GI50,"CAKI-1; Homo sapiens, CAKI-1, 48 h",0.485 µM
same,CC50,"CAKI-1; Homo sapiens, CAKI-1, 48 h, read-out: LC50",47.1 µM
same,GI50,"MCF-7; Homo sapiens, MCF7, 48 h",0.239 µM
same,CC50,"MCF-7; Homo sapiens, MCF7, 48 h, read-out: LC50",> 100 µM
same,TGI,"MCF-7; MCF-7 (Breast Cancer), 48 h, SRB",14.4 µM
same,GI50,"NCI/ADR-Res; Homo sapiens, NCI/ADR-RES",0.407 µM
same,CC50,"NCI/ADR-Res; Homo sapiens, NCI/ADR-RES, read-out: LC50",6.43 µM
same,TGI,"NCI/ADR-Res; NCI/ADR-Res (Breast Cancer), SRB",2.11 µM
